This note sets out measurements from US6645938B2, “Protection against ischemia and reperfusion injury” (ZymoGenetics, Inc., priority 2000, dated 2003).

Assay [1] relates to mouse vas deferens. The assay is described as follows: Mouse vas deferens (m.v.d.) contractility assay. Particulars: 6000 nM glibenclamide with 1000 nM compound-D. The procedure: Glibenclamide, a KATP channel blocker, blocked the inhibition of contraction of mouse vas deferens induced by compound-D SEQ ID NO:1. With reference to FIG. 8, the effect of administration of 1000 nM compound-D SEQ ID NO:1 alone (open bar) versus 1000 nM compound-D SEQ ID NO:1 with 6000 nM glibenclamide (hatched bar) on contractility of mouse vas deferens (m.v.d.) (n=6) is shown. Glibenclamide restored m.v.d. contractions which compound-D SEQ ID NO:1 had suppressed. […] (n=2).

Assay [2] has as its system isolated perfused rat heart. Briefly: Isolated perfused rat heart (Langendorff), 20 min global ischemia and 120 min reperfusion after 24 h pretreatment. Type of assay: in vivo. The procedure:
Compound-D SEQ ID NO:1, at a dose of 2 mg/kg and solubilized as described above, was administered by tail vein injection into rats weighing between about 350-400 g (number of animals (n)=6). Control rats (n=6) were injected in the same manner with an equal volume of 0.9% NaCl. After 24 h, the hearts from both treated and control animals were excised and perfused in a modified Langendorff perfusion apparatus at 37° C. using oxygenated Krebs-Henseleit buffer as the perfusate, as known to one skilled in the art. Coronary perfusion pressure was maintained at […] by regulating coronary flow. All hearts were paced at […] (300 beats per minute, bpm) except during ischemia. A saline-filled balloon was inserted in the left ventricle to measure developed pressure (DP) and end-diastolic pressure (EDP) in mm Hg. After 15 min equilibration, both groups were subjected to 20 min zero-flow global ischemia, and then were reperfused for 120 min.
Left ventricles were isolated and divided into three segments along their short axis, stained with triphenyltetrazolium chloride, and stored in formalin. Infarct size was measured on digitized images and expressed as a percentage of myocardium. Data were expressed as mean plus or minus standard error of the mean (±SEM) and were analyzed using a paired Student's t-Test. Confidence limits were established at 95%. […]

In the case of `COc1ccc(Cl)cc1C(=O)NCCc1ccc(S(=O)(=O)NC(=O)NC2CCCCC2)cc1` [Glibenclamide], the “effect on inhibition of contraction induced by compound-D” value in assay [1] is “blocked”.
`O=C1CC[C@@]2(O)[C@H]3Cc4ccc(O)c5c4[C@@]2(CCN3CC2CC2)[C@H]1O5` [naltrexone]: the “effect of naltrexone on the cardioprotective effects of compound-D” value in assay [2] (FIG. 7, naltrexone 3 mg/kg combined with compound-D 2.0 mg/kg, 24 h prior to ischemia) was “did not block”. In addition, the infarct size entry in assay [2] (FIG. 7 naltrexone study, pretreated 24 h prior to ischemia, compound-D 2.0 mg/kg, naltrexone 3 mg/kg, control about 27%) is reported as “about 14.5%”.
